{"source": "patent US8338420B1", "about": "“Treatment of Parkinson's disease and enhancement of dopamine signal using PDE 10 inhibitor” (Mitsubishi Tanabe Pharma Corporation, priority 2002, dated 2012)", "biological_target": "T1, PDE6 (Bos taurus, UniProt P11541+P23439)", "T1 construct": "tissue Tokyo Shibaura Zoki; host or cells: bovine retina, rod outer segments, gel filtration, then limited trypsin treatment", "T1 sequence (P11541 2-856 limits assumed)": "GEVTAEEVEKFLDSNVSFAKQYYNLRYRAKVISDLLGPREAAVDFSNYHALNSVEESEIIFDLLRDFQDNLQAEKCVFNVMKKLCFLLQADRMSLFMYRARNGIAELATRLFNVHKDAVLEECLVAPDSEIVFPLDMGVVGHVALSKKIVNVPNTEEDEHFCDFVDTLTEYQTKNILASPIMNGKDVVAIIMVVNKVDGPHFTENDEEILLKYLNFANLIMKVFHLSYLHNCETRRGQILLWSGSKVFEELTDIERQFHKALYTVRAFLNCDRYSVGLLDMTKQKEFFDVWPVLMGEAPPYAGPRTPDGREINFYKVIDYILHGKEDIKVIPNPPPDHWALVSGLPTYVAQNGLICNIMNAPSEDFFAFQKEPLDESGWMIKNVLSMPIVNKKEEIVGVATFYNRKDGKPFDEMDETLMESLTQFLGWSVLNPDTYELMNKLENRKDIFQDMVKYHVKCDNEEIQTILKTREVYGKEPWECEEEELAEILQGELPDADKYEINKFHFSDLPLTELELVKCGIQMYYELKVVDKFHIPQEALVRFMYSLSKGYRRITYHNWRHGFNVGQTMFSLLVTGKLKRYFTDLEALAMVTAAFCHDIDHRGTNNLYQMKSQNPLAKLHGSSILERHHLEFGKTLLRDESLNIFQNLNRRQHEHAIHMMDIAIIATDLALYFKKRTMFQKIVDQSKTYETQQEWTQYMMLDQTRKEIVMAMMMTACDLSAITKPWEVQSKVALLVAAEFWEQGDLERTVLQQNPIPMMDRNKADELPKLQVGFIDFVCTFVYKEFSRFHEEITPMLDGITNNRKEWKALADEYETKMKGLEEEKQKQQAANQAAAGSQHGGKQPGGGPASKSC", "T1 sequence (P23439 2-850 limits assumed)": "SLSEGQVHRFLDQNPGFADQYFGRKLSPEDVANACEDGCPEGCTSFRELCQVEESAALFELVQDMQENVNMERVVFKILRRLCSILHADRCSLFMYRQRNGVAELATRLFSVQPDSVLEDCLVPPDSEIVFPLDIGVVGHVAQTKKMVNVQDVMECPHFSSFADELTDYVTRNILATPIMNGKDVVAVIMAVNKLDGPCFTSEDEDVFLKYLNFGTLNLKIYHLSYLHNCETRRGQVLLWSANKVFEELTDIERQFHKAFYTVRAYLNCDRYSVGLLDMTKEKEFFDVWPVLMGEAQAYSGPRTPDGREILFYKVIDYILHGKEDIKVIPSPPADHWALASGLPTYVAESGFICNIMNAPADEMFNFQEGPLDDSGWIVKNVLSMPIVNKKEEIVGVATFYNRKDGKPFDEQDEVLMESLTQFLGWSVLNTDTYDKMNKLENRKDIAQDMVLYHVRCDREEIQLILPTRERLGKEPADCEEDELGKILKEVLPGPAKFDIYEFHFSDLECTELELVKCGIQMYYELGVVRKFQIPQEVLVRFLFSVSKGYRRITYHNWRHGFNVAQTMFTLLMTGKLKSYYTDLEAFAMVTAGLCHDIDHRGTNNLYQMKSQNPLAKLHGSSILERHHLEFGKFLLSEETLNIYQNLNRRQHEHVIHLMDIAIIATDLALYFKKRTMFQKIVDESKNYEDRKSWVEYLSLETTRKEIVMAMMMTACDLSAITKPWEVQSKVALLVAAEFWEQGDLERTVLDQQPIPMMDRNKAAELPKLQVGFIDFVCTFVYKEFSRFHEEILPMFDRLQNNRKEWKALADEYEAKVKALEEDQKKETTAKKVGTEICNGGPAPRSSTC", "test": "PDE assay, trypsin-activated PDE6 from bovine retina", "format": "biochemical", "conditions": "substrate about 12 nM [3H]-cGMP and 10 μM cGMP", "procedure": "From the bovine eyeball, purchased from Tokyo Shibaura Zoki, co., Ltd., retina (pale red colored) which is present as a membrane on the pigmented layer was collected and stored at −70° C.\nTo buffer A [16 mM MOPS-NaOH, pH7.5, 1.6 mM dithiothreitol, 8 mM magnesium chloride, 96 mM potassium chloride, 48 mM sodium chloride, 0.16 mM phenylmethylsulfonyl fluoride, 10 μM pepstatin A, 10 μM leupeptin] (20 ml), sucrose (6 g) was dissolved. Added thereto was the above-mentioned retina (about 7 g), and the mixture was stirred for 30 minutes while cutting the retina by scissors. The mixture was applied to centrifugation at 2000 rpm, at 4° C. for 5 minutes and the supernatant was collected. To the resultant residue was added buffer B[10 mM MOPS, pH7.5, 1 mM dithiothreitol, 5 mM magnesium chloride, 60 mM potassium chloride, 30 mM sodium chloride, 0.1 mM phenylmethylsulfonyl fluoride, 10 μM pepstatin A, 10 μM leupeptin] (40 ml), and the mixture was stirred by rolling several times. This was applied to centrifugation and the resultant supernatant was combined with the above obtained supernatant. This is further centrifuged at 7000 rpm, at 4° C., for 5 minutes, and the precipitates were obtained as crude rod outer segment (ROS). […]\nFurther, PDE assay was carried out using the above-eluted fractions as an enzyme solution, and cGMP-hydrolyzing activity was measured. […]", "data": [{"smiles": "COc1ccc(-c2cc(N3CCCC3)nc(/C=C/c3nc(-n4ccnc4)c4ccccc4n3)n2)cc1OC", "note": "[Compound A, 2-{(E)-2-[4-(1-imidazolyl)-quinazolin-2-yl]}ethenyl-4-(3,4-dimethoxy)phenyl-6-(pyrrolidin-1-yl)pyrimidine]", "values": [{"measurement": "IC50", "value": 290, "unit": "nM"}]}]}
